The values below come from article PMC10761660, “Preclinical evaluation of an ^18F-labeled N^ε-acryloyllysine piperazide for covalent targeting of transglutaminase 2” (EJNMMI Radiopharmacy and Chemistry, 2024).

Structures are written as SMILES. Like-named read-outs stand apart in the source and are kept apart here. Some results are limits rather than exact numbers.

Series [1] in a line: Stability in blood in vitro. It is filed as in vitro ADME. Particulars: incubation of the radiotracer in blood in vitro.
Series [2] can be described thus: Ex vivo biodistribution in normal mice. Details: species or system mice (Rj:NMRI-Foxn1 nu/nu). Particulars: i.v., control conditions. How it is done:
For biodistribution studies in normal mice, [^18F]7b (0.57 ± 0.03 MBq corresponding to 27 ± 1 pmol in 0.2 mL 0.9% NaCl with a maximum of 10% ethanol (v/v)) was injected i.v. into nude mice (Rj:NMRI-Foxn1 nu/nu, Janvier Laboratories, Le Genest-Saint-Isle, France, body weight 27.7 ± 3.4 g) without (control conditions) or with co-injection of ketoconazole (3 mg/animal). A stock solution of ketoconazole (141 mM) was prepared in ethanol/Tween-80 (1:1, v/v) by shaking over night at 45 °C. This solution was diluted with 0.9% NaCl (1:4, v/v) prior injection. The animals were sacrificed at 5 and 60 min p.i. by CO2 inhalation and cervical dislocation. Organs and tissues of interest were excised, weighed, and radioactivity was determined using the Wizard™3’’ gamma counter. Activity in selected organs and tissues was expressed as % injected dose per weight (% ID/g) or % injected dose (% ID).

Details of series [3]: method as in Wodtke et al. [2021]. Particulars: in vitro; ref Wodtke et al. [2021]; cited from earlier work.
Series [4] can be described thus: Liver microsome assay. Particulars: for CLint scaled: read-out: predicted intrinsic clearance (pred. CLint); for half-life: t1/2 approach (at 3-4 µM), 1 mg/mL MLM, 2 mM NADPH. It is filed as in vitro ADME, murine. As for the experimental part:
Microsome experiments with [^18F]7b in the presence of NADPH were performed according to the procedure recently described by us with slight modifications (Lemm et al. [2022]). […] [^18F]7b dissolved in 0.5% ethanol/PBS (100 µL; 0.2% ethanol final, e.g. 108 MBq/mL or 4.1 µM final) was mixed with PBS (112.5 µL) and murine liver microsomes (MLM, 12.5 µL of 20 mg/mL stock; 1 mg/mL final; Gibco™ Cat. No. MSMCPL, Lot. No. MS053-A) in a 1.5 mL Eppendorf tube and the mixture was warmed for 5 min at 37 °C. Subsequently, NADPH (25 µL of freshly prepared 20 mM solution in PBS, 2 mM final) was added and the mixture was incubated at 37 °C. As a control incubation, the NADPH solution was replaced by PBS. At distinct time points (5, 10, 15, 30, and 60 min), an aliquot (40 µL) was withdrawn and added to ice-cold CH3CN (160 µL). The mixture was vortexed for 30 s, stored on ice for 4 min and centrifuged (5 min at 16,100 × g). The resulting supernatant was used for radio-HPLC and radio-TLC analyses. For radio-HPLC, the Shimadzu Nexera X2 UHPLC system described above including the conditions for analysis was used. Radio-TLC was carried out on reversed-phase TLC plates (ALUGRAM RP-18W/UV254 from Macherey–Nagel, Düren, Germany) with a mobile phase of 40% CH3CN in water containing 0.1% trifluoroacetic acid. Visualization of radioactive spots and subsequent analysis was conducted as described above.
Testosterone (40 µM final) was used as positive control for the activity of the MLM and was separately treated and analyzed after incubation times of 5, 10, 15, 30, and 60 min as described above (0% ethanol final; HPLC gradient profile: 45% eluent B for 10 min followed by washing of the column with 45% to 95% eluent B in 1 min, 95% eluent B for 5 min, 95% to 45% eluent B in 1 min, 45% eluent B for 8 min; total time of 25 min).
For that, solutions of [^18F]7b in 0.5% ethanol/PBS (10 µL; 0.1% ethanol final, 17 MBq/mL or 1.14 µM final) were mixed with the respective tenfold concentrated solutions of 7b dissolved in 10% DMSO/PBS (5 µL, 1% DMSO final and 5/10/20/40/80 µM of 7b final), PBS (27.5 µL) and murine liver microsomes (2.5 µL of 20 mg/mL stock) in a 1.5 mL Eppendorf tube and the mixture was warmed for 5 min at 37 °C. Subsequently, NADPH (5 µL of freshly prepared 20 mM solution in PBS, 2 mM final) was added and the mixture was incubated at 37 °C. At distinct time points (5, 10, 15, 20, and 30 min), an aliquot (5 µL) was withdrawn and added to ice-cold CH3CN (40 µL). The subsequent steps were performed as described above including analysis by radio-TLC.
For the t1/2 approach at n.c.a. level, the obtained fractions of intact [^18F]7b (by radio-HPLC or radio-TLC analysis) were plotted against the time. Nonlinear regression was performed by one-phase decay (equation 1) as implemented in GraphPad Prism (GraphPad Prism 9.5.1.733), which provided the t1/2 values. The fraction at X = 0 min, Y0, was constrained to 1.0.1 Y0=Y0-Plateau×e^-k×X+Plateau
Subsequently, the intrinsic clearance, CLint (mL*min^−1*kg^−1), was calculated using equation 2 (Obach et al. [1997]; Schneider et al. [2019])2 CLint=ln2/t1/2min×fuinc×1/MLM(mg/mL)×microsomalprotein/liverweightmg/g×liverweight/bodyweightg/kg with the scaling factors of 60.1 mg/g (microsomal protein/liver weight for rats as no value for mice could be found) (Carlile et al. [1997]) and 87.5 g/kg (liver weight/body weight for mice) (Davies and Morris [1993]). The concentration of the MLMs was 1 mg/mL.
For the Vmax/Km approach, the obtained fractions of intact [^18F]7b (by radio-TLC analysis) were plotted against the time (fraction plot). The concentration plot was obtained by transformation of the fractions into concentrations of 7b by taking the experimentally determined molar activity of [^18F]7b into account (i.e. final concentration of 1.14, 6.16, 11.14, 21.14, 41.14, and 81.14 µM for 7b in the performed experiments). Both plots were analyzed by nonlinear regression according to one-phase decay (equation 1). […]

In the case of `C=CC(=O)NCCCCC(NC(=O)Cc1ccccc1)C(=O)N1CCN(c2cccc([18F])n2)CC1` (stereo not drawn) [[^18F]7b], the “[^18F]7b remaining intact” value in series [1] was at least 90%. In series [2] (5 min p.i.), this compound yielded an activity uptake kidneys of 7.9 %ID/g and an activity uptake liver of 15.7 %ID/g. In addition, in series [2] (60 min p.i.), the activity uptake femur is given as 3.9 %ID/g, the “injected activity in intestinal content” value was determined as 50 %ID and the “injected activity in urine” value stood at 19 %ID. Also, the GSH reactivity result in series [3] is “low”. Besides, the “fraction of intact [^18F]7b” value in series [4] (MLM, after 30 min in the absence of NADPH, radio-TLC) came to 0.984. In addition, the Vmax in series [4] (Michaelis–Menten analysis, degradation by MLM (1 mg/mL)) stood at 0.37 µM/min. Also, the Vmax in series [4] (Vmax/Km approach, substrate depletion, radio-TLC) is recorded as 0.37 µM*mL*min^-1*mg^-1. Moreover, the CLint scaled in series [4] (mouse, liver microsomes, Vmax/Km approach, mice) was 1610 mL/min/kg. In series [4] (mouse, liver microsomes, radio-HPLC), this compound displayed a half-life of 5.7 min. This compound also had a half-life in series [4] (mouse, liver microsomes, radio-TLC) of 7.2 min. Moreover, the CLint scaled in series [4] (mouse, liver microsomes, t1/2 approach) is 772 mL/min/kg. Further, the Km in series [4] (mouse, liver microsomes, Vmax/Km approach, degradation by MLM, radio-TLC) came out at 1.5 µM.

The half-life is how long it takes for the measured level to halve. The low end stands for fast loss, the high end for slow loss. As usually defined, the Km is the concentration of substrate that gives half-maximal velocity.
